The NIST ThermoML archive (doi:10.1021/acs.jced.6b00332)
± gives the expanded uncertainty stated by the source.

Test: mn = molality of the nth substance listed, in mol/kg
Conditions: 100 kPa, Liquid; for speed of sound: Frequency=3 MHz, Sing-around technique in a fixed-path interferometer; for mass density: Vibrating tube method

CCCCC[N+](CCCCC)(CCCCC)CCCCC.[Br-] [tetrapentylammonium bromide] + O
m1 = 0.01
Conditions	mass density [kg/m3]	speed of sound [m/s]
293.15 K	998.34 ± 0.3	1485.3 ± 1.2
298.15 K	997 ± 0.3	1499.1 ± 1.2
303.15 K	995.7 ± 0.3	1511.2 ± 1.2
308.15 K	994.05 ± 0.3	1521.6 ± 1.2
313.15 K	991.93 ± 0.3	1530.5 ± 1.2
318.15 K	990.16 ± 0.3	1537.9 ± 1.2

CCCCCCCCCCCC[N+](C)(C)C.[Br-] [dodecyltrimethylammonium bromide] + O
Conditions	mass density [kg/m3]	speed of sound [m/s]
293.15 K, m1 = 0.003	998.31 ± 0.3	1483.3 ± 1.2
293.15 K, m1 = 0.006	998.37 ± 0.33	1484.2 ± 1.4
293.15 K, m1 = 0.009	998.43 ± 0.3	1484.9 ± 1.5
293.15 K, m1 = 0.012	998.49 ± 0.3	1485.6 ± 1.3
293.15 K, m1 = 0.015	998.54 ± 0.3	1486.3 ± 1.2
293.15 K, m1 = 0.018	998.6 ± 0.3	1486.7 ± 1.2
293.15 K, m1 = 0.021	998.65 ± 0.3	1486.8 ± 1.2
293.15 K, m1 = 0.024	998.7 ± 0.3	1486.9 ± 1.2
293.15 K, m1 = 0.027	998.75 ± 0.3	1487 ± 1.2
293.15 K, m1 = 0.03	998.81 ± 0.3	1487 ± 1.2
293.15 K, m1 = 0.033	998.87 ± 0.3	1487.1 ± 1.2
293.15 K, m1 = 0.036	998.92 ± 0.3	1487.1 ± 1.2
293.15 K, m1 = 0.039	998.95 ± 0.3	1487.1 ± 1.2
293.15 K, m1 = 0.042	999 ± 0.3	1487.1 ± 1.3
293.15 K, m1 = 0.045	999.05 ± 0.3	1487 ± 1.2
298.15 K, m1 = 0.003	997.2 ± 0.3	1497.2 ± 1.2
298.15 K, m1 = 0.006	997.26 ± 0.3	1497.9 ± 1.2
298.15 K, m1 = 0.009	997.32 ± 0.3	1498.6 ± 1.2
298.15 K, m1 = 0.012	997.37 ± 0.3	1499.2 ± 1.2
298.15 K, m1 = 0.015	997.43 ± 0.3	1499.9 ± 1.2
298.15 K, m1 = 0.018	997.49 ± 0.3	1500.2 ± 1.2
298.15 K, m1 = 0.021	997.53 ± 0.3	1500.3 ± 1.2
298.15 K, m1 = 0.024	997.58 ± 0.3	1500.3 ± 1.2
298.15 K, m1 = 0.027	997.63 ± 0.3	1500.4 ± 1.2
298.15 K, m1 = 0.03	997.67 ± 0.3	1500.4 ± 1.2
298.15 K, m1 = 0.033	997.71 ± 0.3	1500.5 ± 1.2
298.15 K, m1 = 0.036	997.75 ± 0.3	1500.4 ± 1.2
298.15 K, m1 = 0.039	997.79 ± 0.3	1500.5 ± 1.2
298.15 K, m1 = 0.042	997.82 ± 0.3	1500.4 ± 1.2
298.15 K, m1 = 0.045	997.85 ± 0.3	1500.5 ± 1.2
303.15 K, m1 = 0.003	995.71 ± 0.3	1509.7 ± 1.2
303.15 K, m1 = 0.006	995.76 ± 0.3	1510.3 ± 1.2
303.15 K, m1 = 0.009	995.82 ± 0.3	1511 ± 1.2
303.15 K, m1 = 0.012	995.87 ± 0.3	1511.6 ± 1.2
303.15 K, m1 = 0.015	995.92 ± 0.3	1512 ± 1.2
303.15 K, m1 = 0.018	995.97 ± 0.3	1512.2 ± 1.2
303.15 K, m1 = 0.021	996.02 ± 0.3	1512.2 ± 1.2
303.15 K, m1 = 0.024	996.07 ± 0.3	1512.2 ± 1.2
303.15 K, m1 = 0.027	996.11 ± 0.3	1512.2 ± 1.2
303.15 K, m1 = 0.03	996.16 ± 0.3	1512.2 ± 1.2
303.15 K, m1 = 0.033	996.21 ± 0.3	1512.2 ± 1.2
303.15 K, m1 = 0.036	996.24 ± 0.3	1512.2 ± 1.2
303.15 K, m1 = 0.039	996.29 ± 0.3	1512.3 ± 1.2
303.15 K, m1 = 0.042	996.32 ± 0.3	1512.2 ± 1.2
303.15 K, m1 = 0.045	996.36 ± 0.3	1512.3 ± 1.2
308.15 K, m1 = 0.003	994.26 ± 0.3	1520.3 ± 1.2
308.15 K, m1 = 0.006	994.31 ± 0.3	1520.9 ± 1.2
308.15 K, m1 = 0.009	994.36 ± 0.3	1521.5 ± 1.2
308.15 K, m1 = 0.012	994.41 ± 0.3	1522 ± 1.2
308.15 K, m1 = 0.015	994.46 ± 0.3	1522.6 ± 1.2
308.15 K, m1 = 0.018	994.51 ± 0.3	1522.6 ± 1.2
308.15 K, m1 = 0.021	994.55 ± 0.3	1522.6 ± 1.2
308.15 K, m1 = 0.024	994.59 ± 0.3	1522.6 ± 1.2
308.15 K, m1 = 0.027	994.63 ± 0.3	1522.6 ± 1.2
308.15 K, m1 = 0.03	994.67 ± 0.3	1522.5 ± 1.2
308.15 K, m1 = 0.033	994.72 ± 0.3	1522.5 ± 1.2
308.15 K, m1 = 0.036	994.77 ± 0.3	1522.5 ± 1.2
308.15 K, m1 = 0.039	994.79 ± 0.3	1522.5 ± 1.2
308.15 K, m1 = 0.042	994.82 ± 0.3	1522.6 ± 1.2
308.15 K, m1 = 0.045	994.84 ± 0.3	1522.5 ± 1.2
313.15 K, m1 = 0.003	992.29 ± 0.3	1529.4 ± 1.2
313.15 K, m1 = 0.006	992.33 ± 0.3	1529.9 ± 1.2
313.15 K, m1 = 0.009	992.38 ± 0.3	1530.4 ± 1.2
313.15 K, m1 = 0.012	992.42 ± 0.3	1530.9 ± 1.2
313.15 K, m1 = 0.015	992.47 ± 0.3	1531.4 ± 1.2
313.15 K, m1 = 0.018	992.51 ± 0.3	1531.5 ± 1.2
313.15 K, m1 = 0.021	992.55 ± 0.3	1531.4 ± 1.2
313.15 K, m1 = 0.024	992.59 ± 0.3	1531.4 ± 1.2
313.15 K, m1 = 0.027	992.63 ± 0.3	1531.3 ± 1.2
313.15 K, m1 = 0.03	992.67 ± 0.3	1531.3 ± 1.2
313.15 K, m1 = 0.033	992.71 ± 0.3	1531.2 ± 1.2
313.15 K, m1 = 0.036	992.77 ± 0.3	1531.3 ± 1.2
313.15 K, m1 = 0.039	992.81 ± 0.3	1531.3 ± 1.2
313.15 K, m1 = 0.042	992.87 ± 0.3	1531.3 ± 1.2
313.15 K, m1 = 0.045	992.9 ± 0.3	1531.2 ± 1.2
318.15 K, m1 = 0.003	990.28 ± 0.3	1536.3 ± 1.2
318.15 K, m1 = 0.006	990.33 ± 0.33	1536.7 ± 1.3
318.15 K, m1 = 0.009	990.37 ± 0.32	1537.2 ± 1.2
318.15 K, m1 = 0.012	990.39 ± 0.31	1537.8 ± 1.2
318.15 K, m1 = 0.015	990.42 ± 0.3	1538.2 ± 1.2
318.15 K, m1 = 0.018	990.45 ± 0.3	1538.4 ± 1.2
318.15 K, m1 = 0.021	990.48 ± 0.3	1538.6 ± 1.2
318.15 K, m1 = 0.024	990.52 ± 0.3	1538.7 ± 1.2
318.15 K, m1 = 0.027	990.55 ± 0.3	1538.7 ± 1.2
318.15 K, m1 = 0.03	990.57 ± 0.3	1538.7 ± 1.2
318.15 K, m1 = 0.033	990.61 ± 0.3	1538.9 ± 1.2
318.15 K, m1 = 0.036	990.64 ± 0.3	1538.9 ± 1.2
318.15 K, m1 = 0.039	990.67 ± 0.3	1539 ± 1.2
318.15 K, m1 = 0.042	990.7 ± 0.3	1539.1 ± 1.2
318.15 K, m1 = 0.045	990.72 ± 0.3	1539.1 ± 1.2

CCCC[N+](CCCC)(CCCC)CCCC.[Br-] [tetrabutylammonium bromide] + O
m1 = 0.01
Conditions	mass density [kg/m3]	speed of sound [m/s]
293.15 K	998.57 ± 0.3	1485.3 ± 1.2
298.15 K	997.35 ± 0.3	1499.2 ± 1.2
303.15 K	995.88 ± 0.3	1511.4 ± 1.2
308.15 K	994.29 ± 0.3	1521.9 ± 1.2
313.15 K	992.33 ± 0.3	1531 ± 1.2
318.15 K	990.43 ± 0.3	1538.6 ± 1.2
